# Patent US12349665B2, “Animal model for hepatocellular carcinoma and uses thereof” (TAIPEI VETERANS GENERAL HOSPITAL, priority 2019, dated 2025)
# Assays:
# Format in all cases: in vivo, mouse
# [1] = system: wild-type hepatitis B virus; assay: Antiviral drug treatment of HBV transgenic mice with wild-type HBV genome, amount of virus in serum
# Source text: (§1) According to the present invention, the drug resistant HBV genome is resistant to an antiviral nucleoside analogue, such as adefovir or lamivudine.
# (§2) The upper and lower limits of the rectangles in the figure are quartiles, and the horizontal lines within the rectangles indicate the median. Mann-Whitney U test was used for statistical analysis, and p=0.0093, showing the significant differences.
# [2] = system: drug resistant HBV genome; assay: Antiviral drug treatment of HBV transgenic mice with drug resistant HBV genome, amount of virus in serum; settings: compared with wild-type HBV genome mice
# Source text: as §1, §2
# HBV = assay: Long-term use and withdrawal of HBV antiviral drugs in hybrid mice (HBV transgenic x miR-122 knock-out), viral load; settings: six-month-old hybrid mice, ETV 5 or 1 mg/kg; for amount of virus after one month of medication (M1) / amount of virus after one month of withdrawal (M2): TDF 135 or 50 mg/kg
# Procedure: Six-month-old hybrid mice were fed with different doses of TDF (135 or 50 mg/kg-day) and […] (5 or 1 mg/kg-day).
# (Wu & Wu et al. Gastroenterology 2014). At present, nucleoside analogues that are more commonly used clinically are tenofovir (TDF) and entecavir (ETV), which have strong antiviral efficacy and rarely have drug resistance. Reactivation of the virus and recurrence of hepatitis occurred more frequently and early after withdrawal of tenofovir (TDF) than after withdrawal of entecavir (ETV). Withdrawal of tenofovir (TDF) may sometimes cause liver failure for some unknown reason. The effect of long-term use and withdrawal of HBV antiviral drug tenofovir (TDF) and entecavir (ETV) on the amount of virus was compared. Six-month-old hybrid mice were fed with different doses of TDF (135 or 50 mg/kg) and ETV (5 or 1 mg/kg). […] Studies of efficacy and side effects of long-term use of tenofovir (TDF) or entecavir (ETV) on reducing hepatitis by using the hybrid mice are going on, and valuable clinical data will be provided.
smiles,measurement,setting,value
Nc1ncnc2c1ncn2CCOCP(=O)(O)O [adefovir],amount of serum virus after treatment with antiviral drug,[1],decreased by more than a thousand times
same,amount of serum virus after treatment with antiviral drug,[2],decreased much less
"CC(C)OC(=O)OCOP(=O)(CO[C@H](C)Cn1cnc2c(N)ncnc21)OCOC(=O)OC(C)C.O=C(O)/C=C/C(=O)O [TDF, tenofovir]",amount of virus after one month of medication (M1),HBV,reduce the amount of virus to a minimum
same,amount of virus after one month of withdrawal (M2),HBV,quickly rose to the level before medication (M0)
"C=C1[C@H](CO)[C@@H](O)C[C@@H]1n1cnc2c(=O)[nH]c(N)nc21 [ETV, entecavir]",amount of virus after 3 months of withdrawal (M4),HBV,1.0E+5 to 1.0E+6
same,amount of virus after 6 months of withdrawal (M7),HBV,rose to the level before the medication (M0)
same,amount of virus after one month of medication (M1),HBV,reduce the amount of virus to a minimum
same,amount of virus after one month of withdrawal (M2),HBV,maintained at the lower level
